≈ marks a conversion by molar mass, not a printed value. Read-outs that look alike come from different tables or passages of the source.
Tested on: S. aureus MW2 (NRS123)
Experiment: microbe, parasite or virus in culture
Assay type: cell-based, Staphylococcus aureus
Conditions: Staphylococcus aureus
Method: S. aureus strains MW2 (NARSA collection clinical MRSA isolate, NRS123) and ATCC 33591 (MRSA strain from the American Type Culture Collection) were cultured on Mueller-Hinton II cation adjusted (MHA) medium in 90×90 mm square petri dishes. MHA containing ¼ of the MIC value of TR-700, TR-705, LZD, TIA, CLI, TET, or VAN, TMP/SMX throughout the plate and a continuous linear gradient of DAP across the plate was used to passage MW2. ATCC 33591 was passaged with ¼ of the MIC of a subset of these drugs (TR-700, TMP/SMX, and VAN). A DAP-only control passage group was included for both strains. DAP gradients were created by pouring two layers of media as previously described (Bryson, V., et al. 1952. Microbial selection. Science 116:45-51; Locke, J. B., et al., 2009. Antimicrob. Agents Chemother. 53:5265-5274). Following each passage the leading edge of growth (i.e., most resistant cells) was resuspended in phosphate buffered saline (PBS) to an absorbance of 0.30 OD600 and a 100 μl aliquot containing ˜3.0×10^7 CFU (colony-forming units) was spread on to the proceeding passage plate. The starting maximal DAP concentration was 2 μg/ml and was increased in two-fold increments when the leading edge of growth surpassed the half way point on the plate. A glycerol stock was made from the total cell population for each culture condition for each passage. Thirty serial passages were completed for each treatment group.

[1] = NRS123, passage 5, selection group DAP
[2] = NRS123, passage 5, selection group DAP + CLI
[3] = NRS123, passage 5, selection group DAP + LZD
[4] = NRS123, passage 5, selection group DAP + TET
[5] = NRS123, passage 5, selection group DAP + TIA
[6] = NRS123, passage 5, selection group DAP + TMP/SMX
[7] = NRS123, passage 5, selection group DAP + TR-700
[8] = NRS123, passage 5, selection group DAP + TR-705
[9] = NRS123, passage 5, selection group DAP + VAN
[10] = NRS123, passage 10, selection group DAP
[11] = NRS123, passage 10, selection group DAP + CLI
[12] = NRS123, passage 10, selection group DAP + LZD
[13] = NRS123, passage 10, selection group DAP + TET
[14] = NRS123, passage 10, selection group DAP + TIA
[15] = NRS123, passage 10, selection group DAP + TMP/SMX
[16] = NRS123, passage 10, selection group DAP + TR-700
[17] = NRS123, passage 10, selection group DAP + TR-705
[18] = NRS123, passage 10, selection group DAP + VAN
[19] = NRS123, passage 15, selection group DAP
[20] = NRS123, passage 15, selection group DAP + CLI
[21] = NRS123, passage 15, selection group DAP + LZD
[22] = NRS123, passage 15, selection group DAP + TET
[23] = NRS123, passage 15, selection group DAP + TIA
[24] = NRS123, passage 15, selection group DAP + TMP/SMX
[25] = NRS123, passage 15, selection group DAP + TR-700
[26] = NRS123, passage 15, selection group DAP + TR-705
[27] = NRS123, passage 15, selection group DAP + VAN
[28] = NRS123, passage 20, selection group DAP
[29] = NRS123, passage 20, selection group DAP + CLI
[30] = NRS123, passage 20, selection group DAP + LZD
[31] = NRS123, passage 20, selection group DAP + TET
[32] = NRS123, passage 20, selection group DAP + TIA
[33] = NRS123, passage 20, selection group DAP + TMP/SMX
[34] = NRS123, passage 20, selection group DAP + TR-700
[35] = NRS123, passage 20, selection group DAP + TR-705
[36] = NRS123, passage 20, selection group DAP + VAN
[37] = NRS123, passage 25, selection group DAP
[38] = NRS123, passage 25, selection group DAP + CLI
[39] = NRS123, passage 25, selection group DAP + LZD
[40] = NRS123, passage 25, selection group DAP + TET
[41] = NRS123, passage 25, selection group DAP + TIA
[42] = NRS123, passage 25, selection group DAP + TMP/SMX
[43] = NRS123, passage 25, selection group DAP + TR-700
[44] = NRS123, passage 25, selection group DAP + TR-705
[45] = NRS123, passage 25, selection group DAP + VAN
[46] = NRS123, passage 30, selection group DAP
[47] = NRS123, passage 30, selection group DAP + CLI
[48] = NRS123, passage 30, selection group DAP + LZD
[49] = NRS123, passage 30, selection group DAP + TET
[50] = NRS123, passage 30, selection group DAP + TIA
[51] = NRS123, passage 30, selection group DAP + TMP/SMX
[52] = NRS123, passage 30, selection group DAP + TR-700
[53] = NRS123, passage 30, selection group DAP + TR-705
[54] = NRS123, passage 30, selection group DAP + VAN
[55] = NRS123, read-out: DAP MIC by the end of the experiment (selection of DAP^ns strains), MW2, passaged with DAP alone or with co-selecting agent at ¼ MIC, CLSI breakpoint

SMILES: CCC[C@@H]1C[C@@H](C(=O)N[C@@H]([C@H]2O[C@H](SC)[C@H](O)[C@@H](O)[C@H]2O)[C@H](C)Cl)N(C)C1 [CLI, clindamycin]
- MIC (NRS123, passage 0, NRS123 WT): 0.125 mg/L (≈ 0.294 µM)
- MIC [1]: 0.125 mg/L (≈ 0.294 µM)
- MIC [2]: 0.0625 mg/L
- MIC [3]: 0.0625 mg/L
- MIC [4]: 0.125 mg/L
- MIC [5]: 0.125 mg/L
- MIC [6]: 0.125 mg/L
- MIC [7]: 0.125 mg/L
- MIC [8]: 0.0625 mg/L
- MIC [9]: 0.125 mg/L
- MIC [10]: 0.125 mg/L (≈ 0.294 µM)
- MIC [11]: 0.0625 mg/L
- MIC [12]: 0.0625 mg/L
- MIC [13]: 0.0625 mg/L
- MIC [14]: 0.125 mg/L
- MIC [15]: 0.125 mg/L
- MIC [16]: 0.125 mg/L
- MIC [17]: 0.125 mg/L
- MIC [18]: 0.0625 mg/L
- MIC [19]: 0.125 mg/L (≈ 0.294 µM)
- MIC [20]: 0.0625 mg/L
- MIC [21]: 0.125 mg/L
- MIC [22]: 0.0313 mg/L
- MIC [23]: 0.0625 mg/L
- MIC [24]: 0.125 mg/L
- MIC [25]: 0.125 mg/L
- MIC [26]: 0.0625 mg/L
- MIC [27]: 0.125 mg/L
- MIC [28]: 0.0625 mg/L (≈ 0.147 µM)
- MIC [29]: 0.0625 mg/L
- MIC [30]: 0.125 mg/L
- MIC [31]: 0.0313 mg/L
- MIC [32]: 0.0625 mg/L
- MIC [33]: 0.125 mg/L
- MIC [34]: 0.125 mg/L
- MIC [35]: 0.0625 mg/L
- MIC [36]: 0.125 mg/L
- MIC [37]: 0.125 mg/L (≈ 0.294 µM)
- MIC [38]: 0.0625 mg/L
- MIC [39]: 0.0625 mg/L
- MIC [40]: 0.0313 mg/L
- MIC [41]: 0.0625 mg/L
- MIC [42]: 0.125 mg/L
- MIC [43]: 0.125 mg/L
- MIC [44]: 0.0625 mg/L
- MIC [45]: 0.125 mg/L
- MIC [46]: 0.125 mg/L (≈ 0.294 µM)
- MIC [47]: 0.0625 mg/L
- MIC [48]: 0.0625 mg/L
- MIC [49]: 0.0313 mg/L
- MIC [50]: 0.125 mg/L
- MIC [51]: 0.125 mg/L
- MIC [52]: 0.125 mg/L
- MIC [53]: 0.125 mg/L
- MIC [54]: 0.0625 mg/L
- MIC [55]: > 1 mg/L

SMILES: CN(C)[C@@H]1C(O)=C(C(N)=O)C(=O)[C@@]2(O)C(O)=C3C(=O)c4c(O)cccc4[C@@](C)(O)[C@H]3C[C@@H]12 [TET, tetracycline]
- MIC (NRS123, passage 0, NRS123 WT): 0.5 mg/L (≈ 1.13 µM)
- MIC [1]: 0.25 mg/L (≈ 0.563 µM)
- MIC [2]: 0.5 mg/L
- MIC [3]: 0.5 mg/L
- MIC [4]: 0.25 mg/L
- MIC [5]: 0.5 mg/L
- MIC [6]: 0.125 mg/L
- MIC [7]: 0.5 mg/L
- MIC [8]: 0.5 mg/L
- MIC [9]: 0.25 mg/L
- MIC [10]: 0.125 mg/L (≈ 0.281 µM)
- MIC [11]: 0.5 mg/L
- MIC [12]: 0.25 mg/L
- MIC [13]: 0.5 mg/L
- MIC [14]: 0.25 mg/L
- MIC [15]: 0.5 mg/L
- MIC [16]: 0.5 mg/L
- MIC [17]: 0.125 mg/L
- MIC [18]: 0.25 mg/L
- MIC [19]: 0.25 mg/L (≈ 0.563 µM)
- MIC [20]: 0.125 mg/L
- MIC [21]: 0.25 mg/L
- MIC [22]: 0.5 mg/L
- MIC [23]: 0.25 mg/L
- MIC [24]: 0.25 mg/L
- MIC [25]: 0.25 mg/L
- MIC [26]: 0.25 mg/L
- MIC [27]: 0.25 mg/L
- MIC [28]: 0.125 mg/L (≈ 0.281 µM)
- MIC [29]: 0.125 mg/L
- MIC [30]: 0.25 mg/L
- MIC [31]: 0.25 mg/L
- MIC [32]: 0.25 mg/L
- MIC [33]: 0.25 mg/L
- MIC [34]: 0.25 mg/L
- MIC [35]: 0.125 mg/L
- MIC [36]: 0.25 mg/L
- MIC [37]: 0.125 mg/L (≈ 0.281 µM)
- MIC [38]: 0.125 mg/L
- MIC [39]: 0.25 mg/L
- MIC [40]: 0.25 mg/L
- MIC [41]: 0.25 mg/L
- MIC [42]: 0.25 mg/L
- MIC [43]: 0.25 mg/L
- MIC [44]: 0.125 mg/L
- MIC [45]: 0.25 mg/L
- MIC [46]: 0.25 mg/L (≈ 0.563 µM)
- MIC [47]: 0.25 mg/L
- MIC [48]: 0.25 mg/L
- MIC [49]: 0.5 mg/L
- MIC [50]: 0.5 mg/L
- MIC [51]: 0.5 mg/L
- MIC [52]: 0.5 mg/L
- MIC [53]: 0.25 mg/L
- MIC [54]: 0.5 mg/L
- MIC [55]: > 1 mg/L
